Experimental data: BigSolDB 2.1

C[C@@]12C[C@H]3OC(=O)[C@@H]1CO[C@]14O[C@@]5([C@H]2C1=O)[C@@]3(C)OC(=O)[C@@]5(O)CC[C@H]1[C@H]4C[C@@H](O)[C@@]2(O)CC=CC(=O)[C@]12C
solubility (mole fraction)
Conditions | in acetone | in chloroform | in ethanol | in ethyl acetate | in methanol | in water
283.2 K | 0.0173 | 0.0046 | 0.0039 | 0.003 | 0.0081 | 0.0012
293.2 K | 0.022 | 0.0047 | 0.0047 | 0.0032 | 0.0092 | 0.0021
298.2 K | 0.0238 | 0.0049 | 0.0058 | 0.0036 | 0.0101 | 0.0027
303.2 K | 0.0265 | 0.0053 | 0.0071 | 0.0042 | 0.0109 | 0.0028
308.2 K | 0.0286 | 0.0058 | 0.0089 | 0.0052 | 0.0122 | 0.0029
313.2 K | 0.0309 | 0.006 | 0.0107 | 0.0059 | 0.0159 | 0.003
